Measured values: PMC8251916 (Chemistry (Weinheim an Der Bergstrasse, Germany), 2021)
Read-outs that look alike come from different tables or passages of the source.

How the values were obtained:
[1] = test system: F10T (DNA, hairpin, hexaethylene glycol (HEG) linker between 10 and 11) TATAGCTATATATAGCTATA; test: FRET melting; settings: 10 mM K+, 90 mM Li+; 10 mM Li cacodylate; 1 µM ligand, 200 nM DNA
[2] = test system: T. brucei; design: method as in earlier work; settings: typical G4 interactive compounds; ref 6b; cited from earlier work
[3] = test system: Febr1T-K+ (T. brucei G-quadruplex); test: FRET melting assay, T. brucei G4; format: binding; settings: 200 nM DNA, PIPER and 3 not reliable (spectral overlap)
Procedure: (§1) With the library in hand, we began our investigation into G4 stabilization by conducting a Förster resonance energy transfer (FRET) melting assay to assess DNA stabilization using the procedure outlined by De Cian et. al. ^[13] […] The sequences examined (at 200 nM) were the human telomeric G4 in potassium buffer (F21T‐K^+, mixed parallel/hybrid G4) ^[14] and sodium buffer (F21T‐Na^+, antiparallel G4), ^[15] the c‐Myc promoter G‐quadruplex (FmycT‐K^+, parallel G4), ^[16] a polymorphic G4 found in T. brucei (FEBR1T‐K^+, a mixed G4 topology), ^[6b] and a hairpin duplex DNA sequence (F10T‐K^+). Together, these sequences represent targets for therapeutic intervention to treat parasitic infections, ^[6b] or cancer. ^[1b] The topology of each sequence was confirmed independently via circular dichroism (CD, Figure S1). […]
(§2) FRET melting assays were performed to assess ligand affinity for duplex and G-quadruplex
(§3) DNA. Briefly, oligonucleotides of interest were obtained labelled at the 5’ and 3’ ends with FAM (a fluorescence donor) and TAMRA (a fluorescence quencher), respectively. In the folded state, proximity of the donor and quencher result in no observed fluorescence from FAM, since energy is transferred non-radiatively to TAMRA by FRET. As the temperature is raised and the secondary structure denatures, the fluorophores move further apart and the fluorescence signal increases. From the resulting curve, the characteristic melting temperature (Tmax, also referred to as Tm) is defined as the temperature which corresponds to the maxima of the first derivative of the normalised fluorescence signal. The change in melting temperature (ΔTm) induced by the presence of a small molecule ligand provides an indication of the ligand’s ability to stabilise the DNA structure. FRET experiments were performed according to the […]
(§4) procedure reported by De Cian and co-workers[S3] on a Stratagene MX3005P. The method consisted of holding at 25 °C for 5 min, before heating at 1 °C/min to 96 °C in 1 °C increments, […]

[4] = test system: HeLa cervical carcinoma cells; test: Cytotoxicity, alamarBlue assay, HeLa; format: cell-based, human; settings: Homo sapiens, HeLa; 72 h incubation, alamarBlue fluorescence; read-out: absolute EC50 HeLa
Procedure: (§5) Doxorubicin, suramin and miltefosine were used as control compounds.[ ^6b , ^9 ] After incubation with varied concentrations of the compounds for 72 h, cell viability was measured using either an alamarBlue™ assay (for MRC5, HeLa and T. brucei) or MTT assay (for L. major). Absolute EC50 values and selectivity indexes were then calculated from dose‐response curves (Table 2 and S14). […]
(§6) Cell culture reagents were purchased from Thermo Fisher Scientific (Waltham, MA, USA) and used as-is. The Dulbecco’s Minimal Essential Medium (DMEM) formulation contained either high glucose (4.5 g/L, catalogue number: 10569) or low glucose (1 g/L, catalogue number:
(§7) 10567). RPMI-1640 was provided without sodium pyruvate and with L-glutamine (catalogue number: 11875). Phosphate Buffered Saline (PBS) contained NaCl (9 g/L), KH2PO4 (144 mg/L) and Na2HPO4-7.H2O (795 mg/L, catalogue number: 10010049). TrypLE Express™ was provided with EDTA (458 mg/L) and without Phenol Red (catalogue number: 12604021).
MRC-5 cells (human lung fibroblasts) were grown in monolayer (37 °C, 5 % CO2 and 100 % humidity) in DMEM medium (1 g/L glucose), supplemented with 10% heat-inactivated Fetal Bovine Serum (hiFBS), 2 mM L-glutamine, 100 U / mL penicillin and […] streptomycin. HeLa (Human cervical carcinoma cell line) cells were maintained at 37 °C and 5 % CO2 in high glucose DMEM (4.5 g / L) supplemented with 10% hiFBS, 100 U / ml penicillin, […] streptomycin, 2 mM L-glutamine and non-essential aminoacids (1X).
(§8) Cells were cultured according to ATCC recommendations and were used for the experiments while in the exponential growth phase. […]
(§9) Cytotoxicity was measured through the alamarBlue® assay (Thermo Fisher Scientific).[S6,S13] Briefly, 5×10^3 MRC-5 or HeLa cells were seeded in 96-wells plates (100 µL / well) in the presence of increasing concentrations of compound. After 72 hrs of incubation at 37 °C, 20 µL of alamarBlue® solution (110 ng / ml) was added to each well and cells were reincubated for 4 hrs at 37 °C. Then, 50 µL of 3 % SDS were added to each well. The plate was incubated at 37 °C for an extra hour and then analysed by fluorescence with an Infinite F200 plate reader (TECAN Austria, GmbH). The excitation wavelength was fixed at 550 nm and the emission wavelength at 590 nm. The results are expressed as the concentration of compound that reduces

[5] = test system: F10T-K+ (hairpin duplex DNA); test: FRET melting assay, hairpin duplex DNA; format: binding; settings: 200 nM DNA, PIPER and 3 not reliable (spectral overlap)
Procedure: as §1, §2, §3, §4

[6] = test system: T. brucei; test: Trypanocidal activity, alamarBlue assay; format: cell-based; settings: Trypanosoma brucei; 72 h incubation, alamarBlue fluorescence; read-out: absolute EC50 T. brucei
Procedure: as §5, §6, §7
(§10) MRC-5 cells (human lung fibroblasts) were grown in monolayer (37 °C, 5 % CO2 and 100 % humidity) in DMEM medium (1 g/L glucose), supplemented with 10% heat-inactivated Fetal Bovine Serum (hiFBS), 2 mM L-glutamine, 100 U / mL penicillin and […]
(§11) streptomycin. […]
as §8
hiFBS. Parasites were split every other day and maintained in their experimental growth phase (below 2 million parasites per mL).
as §9

[7] = test system: FmycT-K+ (c-Myc promoter G-quadruplex, parallel); test: FRET melting assay, c-Myc promoter G4; format: binding; settings: 200 nM DNA, PIPER and 3 not reliable (spectral overlap)
Procedure: as §1, §2, §3, §4

[8] = test system: L. major; test: Leishmaniacidal activity, MTT assay; format: cell-based; settings: Leishmania major; 72 h incubation, MTT absorbance; read-out: absolute EC50 L. major
Procedure: Doxorubicin, suramin and miltefosine were used as control compounds.[ ^6b , ^9 ] After incubation with varied concentrations of the compounds for 72 h, cell viability was measured using either an alamarBlue™ assay (for MRC5, HeLa and T. brucei) or MTT assay (for L. major). Absolute EC50 values and selectivity indexes were then calculated from dose‐response curves (Table 2 and S14).
Invitrogen). L. major promastigotes (MHOM/IL/80/Friedlin) were cultured at 28 °C, 5 % CO2 in modified RPMI-1640 medium (Thermo Fisher Scientific, Waltham, MA, USA) with 10% hiFBS. Parasites were split every other day and maintained in their experimental growth phase (below 2 million parasites per mL). […]
The results are expressed as the concentration of compound that reduces cell growth by 50 % versus untreated control cells (EC50) using GraphPad Prism 7 (GraphPad Software) to fit the data to a sigmoidal curve. Data are presented as the average of three independent measurements all conducted in triplicate conditions. […]
The leishmaniacidal activity of the compounds on promastigotes L. major (MHOM/IL/80/Friedlin) was carried out as previously described.[S14] Briefly, 4 × 10^6 / mL promastigotes were incubated for 72 h at 28 °C in 96-well plates (50 µL/well) in the presence of increasing concentration of compounds. Cell proliferation was determined using an MTT-based assay (Sigma-Aldrich). Thus, after the 72 h incubation, 10 µL of MTT (5 mg/ml) were added to each well and parasites were reincubated for 4 hrs at 28 °C. Then, 50 µL of 20 % SDS were added to each well. The plate was then incubated at 37°C for 4-16 hrs and analysed using an Infinite F200 plate reader (TECAN Austria, GmbH). The absorbance was measured […]
at a wavelength of 540 nm and the EC50 was calculated as described above. Data are presented as the average of three independent measurements, all conducted in triplicate conditions. […]

[9] = test system: F21T-Na+ (human telomeric G-quadruplex, antiparallel); test: FRET melting assay, human telomeric G4 in sodium buffer; format: binding; settings: 200 nM DNA, PIPER and 3 not reliable (spectral overlap)
Procedure: as §1, §2, §3, §4

[10] = test system: F21T (DNA, G4) GGGTTAGGGTTAGGGTTAGGG; test: FRET melting; settings: 10 mM K+, 90 mM Li+, 10 mM Li cacodylate, 200 nM DNA
[11] = test system: MRC5 non-tumoral cells; test: Cytotoxicity, alamarBlue assay, MRC5; format: cell-based, human; settings: Homo sapiens, MRC5, 72 h, 72 h incubation, alamarBlue fluorescence; read-out: absolute EC50 MRC5
Procedure: as §5, §6, §7, §10, §11, §8, §9

[12] = test system: F21T-K+ (human telomeric G-quadruplex, mixed parallel/hybrid); test: FRET melting assay, human telomeric G4 in potassium buffer; format: binding; settings: 200 nM DNA, PIPER and 3 not reliable (spectral overlap)
Procedure: as §1, §2, §3, §4

[13] = test system: Febr1T (DNA, G4) GGGCAGGGGGTGATGGGGAGGAGCCAGGG; test: FRET melting; settings: 10 mM K+, 90 mM Li+; 10 mM Li cacodylate; 1 µM ligand, 200 nM DNA
[14] = test system: FMycT (DNA, G4) TTGAGGGTGGGTAGGGTGGGTAA; test: FRET melting; settings: 1 mM K+, 99 mM Li+; 10 mM Li cacodylate; 1 µM ligand, 200 nM DNA

SMILES | EC50 [2] | ΔTm Febr1T-K+ ([3]; 10 µM ligand) | EC50 [4] | ΔTm F10T-K+ ([5]; 10 µM ligand) | EC50 [6] | ΔTm FmycT-K+ ([7]; 10 µM ligand) | EC50 [8] | ΔTm F21T-Na+ ([9]; 10 µM ligand) | EC50 [11] | ΔTm F21T-K+ ([12]; 10 µM ligand) | other results
C[n+]1ccc(-c2c3nc(c(-c4cc[n+](C)cc4)c4ccc([nH]4)c(-c4cc[n+](C)cc4)c4nc(c(-c5cc[n+](C)cc5)c5ccc2[nH]5)C=C4)C=C3)cc1 | – | – | – | – | – | – | – | – | – | – | ΔTm [1]: 9 ± 1 °C
CN(C)c1ccc(Nc2c3ccc(NC(=O)CCN4CCCC4)cc3nc3cc(NC(=O)CCN4CCCC4)ccc23)cc1 [BRACO‐19] | 7.8 µM | – | – | – | – | – | – | – | – | – | selectivity index (SI) T. brucei over MRC5 [2]: 1.5
CN1CCN(CCCN2C(=O)c3ccc(-c4ccc5c(c4)C(=O)N(CCCN4CCN(C)CC4)C5=O)cc3C2=O)CC1 [Compound 4] | – | 3 ± 1 °C | > 100 µM | 0 ± 1 °C | 57 ± 10 µM | 2 ± 1 °C | > 100 µM | -2 ± 2 °C | > 100 µM | 1 ± 1 °C | ΔTm ([10]; 10 µM ligand): 1 ± 1 °C
CN1CCN(CCCNC(=O)c2ccc(C(=O)c3ccc(C(=O)NCCCN4CCN(C)CC4)c(C(=O)NCCCN4CCN(C)CC4)c3)cc2C(=O)NCCCN2CCN(C)CC2)CC1 [Compound 10] | – | 1 ± 2 °C | > 100 µM | 0 ± 1 °C | 55 ± 3 µM | -1 ± 1 °C | > 100 µM | -2 ± 1 °C | > 100 µM | -2 ± 1 °C | –
NCCOc1cc(C(=O)Nc2cc(OCCN)c3ccccc3n2)nc(C(=O)Nc2cc(OCCN)c3ccccc3n2)c1 [Pyridostatin, reference compound] | 5.5 µM | – | – | – | – | – | – | – | – | – | ΔTm Febr1T-K+ ([3]; 1 µM ligand): 29 ± 2 °C; ΔTm F10T-K+ ([5]; 1 µM ligand): 1 ± 1 °C; ΔTm FmycT-K+ ([7]; 1 µM ligand): 20 ± 3 °C; ΔTm F21T-Na+ ([9]; 1 µM ligand): 36 ± 2 °C; ΔTm ([10]; 1 µM ligand): 34 ± 1 °C; ΔTm [13]: 29 ± 2 °C; ΔTm F21T-K+ ([12]; 1 µM ligand): 34 ± 1 °C; ΔTm [14]: 20 ± 3 °C
